LC50 data for 2 compounds are collected here from ChEMBL document CHEMBL1149039, “A new scalarane sesterterpenoid from the marine sponge Cacospongia mollior” (J Nat Prod, 1994).

Molecules are shown by their SMILES. Converted amounts (≈) assume the structure as drawn.

The data set is described as follows: Toxicity in Artemia salina. In kind it is organism-based. Conditions: in vivo, read-out: LD50 (the source's name).

As for `CC1(C)CCC[C@]2(C)[C@H]3CC[C@@]4(C)[C@@H](CC=C(C=O)[C@@H]4C=O)[C@]3(C)CC[C@@H]12` [12-DEACETOXYSCALARADIAL], the LC50 worked out at 0.77 µg/mL (≈ 2.08 µM).
With `CC(=O)O[C@H]1C[C@@H]2[C@@]3(C)CCCC(C)(C)[C@@H]3CC[C@@]2(C)[C@@H]2CC=C(C=O)[C@H](C=O)[C@@]12C` [SCALARADIAL], the LC50 was 0.18 µg/mL (≈ 0.42 µM).
